Structures can show the parent of a compound that is named as a salt. One block for each molecule: values may come before it. Active and inactive are the calls of the source.
What was measured:
[1] = target: T1, Aryl hydrocarbon receptor (Homo sapiens, UniProt P35869); details: Potency;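 also: confirmatory quantitative high-throughput screen measuring activation of the AhR signaling pathway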
T1 sequence (P35869 whole entry): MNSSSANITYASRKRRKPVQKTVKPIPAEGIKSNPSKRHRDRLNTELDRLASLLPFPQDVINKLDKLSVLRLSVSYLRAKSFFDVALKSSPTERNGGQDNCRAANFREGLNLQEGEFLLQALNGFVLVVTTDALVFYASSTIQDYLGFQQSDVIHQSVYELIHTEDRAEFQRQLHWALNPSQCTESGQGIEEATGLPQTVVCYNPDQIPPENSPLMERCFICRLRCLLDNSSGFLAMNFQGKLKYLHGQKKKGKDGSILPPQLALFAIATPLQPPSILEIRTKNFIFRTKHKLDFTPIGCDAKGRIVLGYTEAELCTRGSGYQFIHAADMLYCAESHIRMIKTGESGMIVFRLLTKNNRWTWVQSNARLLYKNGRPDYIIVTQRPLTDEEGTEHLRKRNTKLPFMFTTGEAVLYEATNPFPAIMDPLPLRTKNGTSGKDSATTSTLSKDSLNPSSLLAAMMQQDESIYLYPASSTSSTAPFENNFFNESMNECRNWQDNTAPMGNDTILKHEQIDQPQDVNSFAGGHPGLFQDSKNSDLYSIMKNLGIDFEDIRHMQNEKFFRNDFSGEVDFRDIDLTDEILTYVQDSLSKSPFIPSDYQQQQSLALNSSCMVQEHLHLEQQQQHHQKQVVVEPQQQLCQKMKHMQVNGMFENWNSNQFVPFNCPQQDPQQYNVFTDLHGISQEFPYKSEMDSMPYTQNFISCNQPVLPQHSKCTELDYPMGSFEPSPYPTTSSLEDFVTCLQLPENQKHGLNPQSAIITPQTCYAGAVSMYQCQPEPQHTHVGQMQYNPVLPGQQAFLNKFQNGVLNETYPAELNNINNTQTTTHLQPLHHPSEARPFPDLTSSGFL

[2] = target: ATP-dependent molecular chaperone HSP82 (Candida albicans (strain WO-1) (Yeast), UniProt C4YTQ8); test: loss of DOC-induced GRE-beta-galactosidase reporter signal, dose response, Hsp90 inhibitor project, S. cerevisiae, luminescence (AID 2400); assay type: functional, cell-based;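 also: beta-galactosidase luminescence from glucocorticoid response element reporter as proxy for Hsp90 function; inhibitor potency where signal loss means Hsp90 inhibition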
Chain of ATP-dependent molecular chaperone HSP82 (C4YTQ8 whole entry): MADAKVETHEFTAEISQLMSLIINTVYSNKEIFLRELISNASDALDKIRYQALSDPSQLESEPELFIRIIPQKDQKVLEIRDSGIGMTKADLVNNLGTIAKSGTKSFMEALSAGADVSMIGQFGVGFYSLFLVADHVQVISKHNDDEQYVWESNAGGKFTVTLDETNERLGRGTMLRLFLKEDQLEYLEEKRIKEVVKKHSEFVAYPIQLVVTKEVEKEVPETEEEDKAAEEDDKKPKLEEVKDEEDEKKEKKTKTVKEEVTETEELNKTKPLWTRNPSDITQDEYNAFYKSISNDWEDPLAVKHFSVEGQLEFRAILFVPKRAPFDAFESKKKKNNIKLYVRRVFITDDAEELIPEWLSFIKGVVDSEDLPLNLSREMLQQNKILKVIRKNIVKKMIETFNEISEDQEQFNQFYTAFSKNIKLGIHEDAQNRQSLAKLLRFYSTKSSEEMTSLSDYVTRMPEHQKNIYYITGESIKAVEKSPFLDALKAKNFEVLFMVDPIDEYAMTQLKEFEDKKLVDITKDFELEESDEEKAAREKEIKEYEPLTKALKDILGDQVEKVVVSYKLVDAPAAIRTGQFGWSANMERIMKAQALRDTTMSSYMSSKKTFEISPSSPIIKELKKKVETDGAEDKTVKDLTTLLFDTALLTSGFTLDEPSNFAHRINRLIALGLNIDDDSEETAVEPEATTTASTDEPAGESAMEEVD

[3] = inhibitors of intracellular T. cruzi replication, confirmation, NIH3T3 host cells, beta-gal luminescence (AID 2044); assay type: functional, cell-based;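 also: intracellular parasites grown in NIH/3T3 mouse fibroblasts as host cells; luminescent beta-galactosidase reporter signal from transgenic T. cruzi replicating inside host cells; inhibitors lower the luminescence signal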
[4] = NIH-3T3 fibroblast cytotoxicity, dose response, cytotoxicity control for antifungal single agent project, cell-based, Alamar Blue, dry powder (AID 602188); assay type: functional
[5] = C. albicans growth with fluconazole, confirmation, fluorescence, retest (AID 2467); assay type: functional, cell-based
[6] = NIH-3T3 fibroblast cytotoxicity, dose response, cytotoxicity control, cell-based, fluorescence, Alamar Blue, secondary assay (AID 2327); assay type: functional;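 also: NIH-3T3 mouse fibroblasts cultured with fluconazole at 8 µg/mL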
[7] = target: T2, Serine/threonine-protein phosphatase (Candida dubliniensis (strain CD36 / CBS 7987 / NCPF 3949 / NRRLY-17841) (Yeast), UniProt B9W6M3); test: calcineurin pathway inhibitors in yeast reporter, dose response, S. cerevisiae, CDRE-lacZ, luminescence, secondary (AID 2388); assay type: functional, cell-based;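 also: yeast reporter cells carrying a calcineurin-responsive lacZ construct stimulated with calcium chloride; luminescent beta-galactosidase reporter signal in whole cells rather than isolated phosphatase activity; potency for inhibition where a drop in reporter signal means calcineurin blockade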
T2 sequence (B9W6M3 whole entry): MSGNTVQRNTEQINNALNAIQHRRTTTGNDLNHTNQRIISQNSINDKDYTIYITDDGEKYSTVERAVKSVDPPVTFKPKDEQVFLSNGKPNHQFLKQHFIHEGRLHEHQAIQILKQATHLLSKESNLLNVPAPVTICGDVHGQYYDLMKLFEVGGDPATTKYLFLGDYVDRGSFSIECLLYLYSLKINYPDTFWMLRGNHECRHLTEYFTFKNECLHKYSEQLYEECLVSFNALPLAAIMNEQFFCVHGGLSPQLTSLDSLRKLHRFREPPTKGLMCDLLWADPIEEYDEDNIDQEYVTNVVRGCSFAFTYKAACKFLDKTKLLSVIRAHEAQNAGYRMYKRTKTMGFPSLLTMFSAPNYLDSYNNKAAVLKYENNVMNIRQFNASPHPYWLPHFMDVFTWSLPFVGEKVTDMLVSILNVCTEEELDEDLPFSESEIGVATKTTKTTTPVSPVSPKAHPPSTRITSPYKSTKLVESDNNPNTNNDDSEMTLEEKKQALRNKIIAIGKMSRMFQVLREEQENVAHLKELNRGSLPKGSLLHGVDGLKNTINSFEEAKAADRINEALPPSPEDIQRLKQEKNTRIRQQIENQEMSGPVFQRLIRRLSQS

[8] = target: Heat shock protein HSP 90-alpha (Homo sapiens, UniProt P07900); assay type: functional, organism-based
Beta-galactosidase = Beta-galactosidase (Escherichia coli, UniProt Q8VNN2); test: beta-galactosidase enzyme inhibitors and activators, dose response, artefact control for CCR6 antagonist project, biochemical, E. coli enzyme, set 3 (AID 504712); assay type: functional
[9] = cytotoxicity toward NIH3T3 fibroblasts, dose response, counter-screen, cell-based, ATP luminescence, mouse fibroblasts (AID 2010); assay type: functional;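 also: cells exposed to compound for about 90 hours before reading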
[10] = target: 26S proteasome non-ATPase regulatory subunit 14 (Homo sapiens, UniProt O00487); test: inhibition of proteasome subunit RPN11 – biochemical, fluorescence polarization, uHTS hits, confirmation (AID 602368); assay type: functional
Chain of 26S proteasome non-ATPase regulatory subunit 14 (O00487 whole entry): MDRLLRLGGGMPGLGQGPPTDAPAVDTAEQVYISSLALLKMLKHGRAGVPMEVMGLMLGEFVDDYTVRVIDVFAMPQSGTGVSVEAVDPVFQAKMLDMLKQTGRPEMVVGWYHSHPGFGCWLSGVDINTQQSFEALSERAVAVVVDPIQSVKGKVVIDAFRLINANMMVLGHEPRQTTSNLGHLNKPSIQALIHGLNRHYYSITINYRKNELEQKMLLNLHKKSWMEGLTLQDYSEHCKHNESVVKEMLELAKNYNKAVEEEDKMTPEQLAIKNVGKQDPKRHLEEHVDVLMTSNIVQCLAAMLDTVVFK

Prothrombin = Prothrombin (Bos taurus, UniProt P00735); test: thrombin inhibition, dose response, biochemical, fluorescence polarization, uHTS hits (AID 602369); assay type: functional
[11] = target: 72 kDa type IV collagenase (Homo sapiens, UniProt P08253); test: Dose Response validation of uHTS RPN11 inhibitor hits using a MMP-2 Fluorescence assay.; assay type: functional
Chain of 72 kDa type IV collagenase (P08253 whole entry): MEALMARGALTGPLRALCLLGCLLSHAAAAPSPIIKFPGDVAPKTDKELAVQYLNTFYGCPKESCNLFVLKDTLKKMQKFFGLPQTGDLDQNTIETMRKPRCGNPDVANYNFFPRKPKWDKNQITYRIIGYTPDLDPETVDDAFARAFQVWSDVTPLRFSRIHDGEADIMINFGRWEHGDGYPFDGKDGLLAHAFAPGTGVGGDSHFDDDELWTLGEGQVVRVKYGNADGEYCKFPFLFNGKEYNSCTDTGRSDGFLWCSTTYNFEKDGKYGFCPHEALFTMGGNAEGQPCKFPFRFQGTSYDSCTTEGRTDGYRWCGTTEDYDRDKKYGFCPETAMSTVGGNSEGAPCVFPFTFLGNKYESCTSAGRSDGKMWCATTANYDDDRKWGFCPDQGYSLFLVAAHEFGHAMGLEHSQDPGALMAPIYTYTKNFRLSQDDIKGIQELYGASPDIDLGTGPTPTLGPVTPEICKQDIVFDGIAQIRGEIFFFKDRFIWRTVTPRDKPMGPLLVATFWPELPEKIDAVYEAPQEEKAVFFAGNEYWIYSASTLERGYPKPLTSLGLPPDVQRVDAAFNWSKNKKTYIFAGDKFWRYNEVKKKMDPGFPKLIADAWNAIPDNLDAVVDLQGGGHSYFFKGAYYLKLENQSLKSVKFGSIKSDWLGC

[12] = target: Ras and Rab interactor 1/Tyrosine-protein kinase ABL1 (Homo sapiens, UniProt P00519+Q13671); assay type: functional;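 also: biochemical TR-FRET dose-response test measuring inhibition of binding between Rin1 and Abl proteins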
[13] = target: Glycogen synthase kinase-3 beta (Homo sapiens, UniProt P49841); assay type: functional;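 also: value comes from a broad kinome profiling panel, with GSK3B as the panel member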
Chain of Glycogen synthase kinase-3 beta (P49841 whole entry): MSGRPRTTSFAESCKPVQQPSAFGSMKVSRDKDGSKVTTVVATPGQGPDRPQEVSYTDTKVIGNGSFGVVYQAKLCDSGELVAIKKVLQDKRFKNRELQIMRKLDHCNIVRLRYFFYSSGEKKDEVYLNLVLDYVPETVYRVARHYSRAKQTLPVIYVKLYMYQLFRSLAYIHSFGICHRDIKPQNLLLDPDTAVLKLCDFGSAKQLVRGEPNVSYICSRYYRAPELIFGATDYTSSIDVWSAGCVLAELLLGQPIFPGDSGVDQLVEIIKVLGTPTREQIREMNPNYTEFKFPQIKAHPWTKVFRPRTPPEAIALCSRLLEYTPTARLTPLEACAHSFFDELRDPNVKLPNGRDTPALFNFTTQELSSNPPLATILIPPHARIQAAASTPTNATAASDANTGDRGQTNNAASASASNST

[14] = target: Homeodomain-interacting protein kinase 2 (Homo sapiens, UniProt Q9H2X6); assay type: functional;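 also: measured within a kinome-wide kinase profiling panel, HIPK2 being one panel member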
Chain of Homeodomain-interacting protein kinase 2 (Q9H2X6 whole entry): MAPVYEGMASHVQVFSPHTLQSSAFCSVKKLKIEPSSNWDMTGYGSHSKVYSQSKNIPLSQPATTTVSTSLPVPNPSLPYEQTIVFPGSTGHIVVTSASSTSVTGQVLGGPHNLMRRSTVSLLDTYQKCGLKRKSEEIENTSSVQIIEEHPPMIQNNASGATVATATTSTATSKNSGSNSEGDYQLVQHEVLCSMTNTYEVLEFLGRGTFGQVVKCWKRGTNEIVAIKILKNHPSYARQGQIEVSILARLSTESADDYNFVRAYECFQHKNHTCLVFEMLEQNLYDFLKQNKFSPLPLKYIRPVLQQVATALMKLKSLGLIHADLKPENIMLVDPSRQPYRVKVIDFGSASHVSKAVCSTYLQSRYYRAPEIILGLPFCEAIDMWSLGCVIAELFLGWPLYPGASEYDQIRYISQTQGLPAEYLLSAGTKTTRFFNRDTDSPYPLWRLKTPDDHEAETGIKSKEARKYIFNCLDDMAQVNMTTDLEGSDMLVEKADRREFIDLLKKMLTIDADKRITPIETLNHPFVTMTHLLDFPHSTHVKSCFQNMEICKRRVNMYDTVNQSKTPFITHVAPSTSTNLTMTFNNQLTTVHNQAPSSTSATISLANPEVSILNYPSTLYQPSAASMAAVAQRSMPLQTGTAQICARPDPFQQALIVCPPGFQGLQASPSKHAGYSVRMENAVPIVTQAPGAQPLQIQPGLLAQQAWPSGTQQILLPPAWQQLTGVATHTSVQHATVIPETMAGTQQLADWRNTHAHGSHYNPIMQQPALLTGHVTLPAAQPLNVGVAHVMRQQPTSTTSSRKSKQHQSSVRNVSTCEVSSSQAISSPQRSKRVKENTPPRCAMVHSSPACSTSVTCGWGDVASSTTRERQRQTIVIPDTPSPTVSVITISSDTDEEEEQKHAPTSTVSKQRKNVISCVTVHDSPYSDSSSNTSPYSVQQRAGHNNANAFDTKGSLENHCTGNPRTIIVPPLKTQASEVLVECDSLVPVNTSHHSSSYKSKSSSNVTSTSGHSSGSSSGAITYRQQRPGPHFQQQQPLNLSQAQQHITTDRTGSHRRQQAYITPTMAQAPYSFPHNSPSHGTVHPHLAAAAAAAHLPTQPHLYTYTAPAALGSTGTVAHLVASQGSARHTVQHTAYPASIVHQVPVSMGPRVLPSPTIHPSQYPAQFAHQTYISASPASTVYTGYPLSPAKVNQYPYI

[15] = target: Mitogen-activated protein kinase kinase kinase kinase 4 (Homo sapiens, UniProt O95819); assay type: functional
[16] = target: cAMP-dependent protein kinase catalytic subunit alpha (Homo sapiens, UniProt P17612); assay type: functional
[17] = target: Serine/threonine-protein kinase pim-1 (Homo sapiens, UniProt P11309); assay type: functional
Chain of Serine/threonine-protein kinase pim-1 (P11309 whole entry): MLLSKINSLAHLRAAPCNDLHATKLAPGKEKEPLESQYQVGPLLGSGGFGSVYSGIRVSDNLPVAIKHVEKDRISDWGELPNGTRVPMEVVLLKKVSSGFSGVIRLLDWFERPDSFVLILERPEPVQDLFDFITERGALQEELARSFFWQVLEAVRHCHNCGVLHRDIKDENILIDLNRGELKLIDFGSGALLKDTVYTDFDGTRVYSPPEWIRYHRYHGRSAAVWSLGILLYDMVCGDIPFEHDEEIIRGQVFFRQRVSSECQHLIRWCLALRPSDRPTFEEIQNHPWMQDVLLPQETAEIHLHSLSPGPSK

[18] = target: Dual specificity protein kinase CLK4 (Homo sapiens, UniProt Q9HAZ1); assay type: functional
Chain of Dual specificity protein kinase CLK4 (Q9HAZ1 whole entry): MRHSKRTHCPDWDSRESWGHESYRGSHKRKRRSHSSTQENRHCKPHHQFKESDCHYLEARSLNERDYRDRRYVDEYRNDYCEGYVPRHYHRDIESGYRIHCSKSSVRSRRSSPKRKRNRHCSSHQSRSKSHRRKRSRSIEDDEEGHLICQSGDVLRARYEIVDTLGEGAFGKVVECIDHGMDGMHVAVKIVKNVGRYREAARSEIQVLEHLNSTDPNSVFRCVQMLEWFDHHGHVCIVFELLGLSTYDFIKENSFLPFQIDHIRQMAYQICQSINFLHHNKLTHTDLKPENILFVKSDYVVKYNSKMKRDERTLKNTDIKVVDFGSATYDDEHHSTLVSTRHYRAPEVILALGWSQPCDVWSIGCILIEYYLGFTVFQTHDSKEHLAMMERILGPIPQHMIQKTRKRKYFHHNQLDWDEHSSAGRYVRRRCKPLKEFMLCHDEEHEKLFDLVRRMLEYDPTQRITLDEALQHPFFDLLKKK

[19] = target: Interleukin-1 receptor-associated kinase 4 (Homo sapiens, UniProt Q9NWZ3); assay type: functional
Chain of Interleukin-1 receptor-associated kinase 4 (Q9NWZ3 whole entry): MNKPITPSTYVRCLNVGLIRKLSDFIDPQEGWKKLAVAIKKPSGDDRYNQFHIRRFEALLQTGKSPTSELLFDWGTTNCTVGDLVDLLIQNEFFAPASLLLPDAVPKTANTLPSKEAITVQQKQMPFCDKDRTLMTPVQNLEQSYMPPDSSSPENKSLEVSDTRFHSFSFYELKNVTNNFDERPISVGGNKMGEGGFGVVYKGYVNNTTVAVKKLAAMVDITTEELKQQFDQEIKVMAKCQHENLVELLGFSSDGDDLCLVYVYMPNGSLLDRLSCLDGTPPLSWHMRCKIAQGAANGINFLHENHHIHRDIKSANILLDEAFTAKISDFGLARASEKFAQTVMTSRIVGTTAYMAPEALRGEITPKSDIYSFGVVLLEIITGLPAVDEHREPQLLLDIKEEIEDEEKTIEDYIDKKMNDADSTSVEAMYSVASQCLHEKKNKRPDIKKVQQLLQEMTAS

[20] = target: Cell division cycle 7-related protein kinase (Homo sapiens, UniProt O00311); assay type: functional;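 also: value obtained from a kinome-wide kinase panel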
Interleukin-8 [21] = target: T3, Interleukin-8 (Homo sapiens, UniProt P10145); test: Dose Response confirmation of uHTS small molecule hits for cystic fibrosis induced NFkb Inhibitors in a TNFa-induced IL8 counterscreen.; assay type: functional; details: read-out: IC50_Mean
T3 sequence (P10145 whole entry): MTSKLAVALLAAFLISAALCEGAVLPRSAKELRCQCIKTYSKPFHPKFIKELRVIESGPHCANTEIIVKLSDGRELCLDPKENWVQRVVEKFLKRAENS

Interleukin-8 [22] = target: T3, Interleukin-8; test: Dose Response confirmation of uHTS small molecule hits for cystic fibrosis induced NFkb Inhibitors in a PAF-induced IL8 counterscreen.; assay type: functional; details: read-out: IC50_Mean
Kallikrein-7 = Kallikrein-7 (Homo sapiens, UniProt P49862); test: Fluorescence Intensity-based biochemical primary high throughput dose response assay to identify activators of kallikrein-7 (K7) zymogen.
[23] = target: T4, DNA repair and recombination protein RAD54-like (Homo sapiens, UniProt Q92698); test: inhibitors of human RAD54 branch migration, confirmation, biochemical, fluorescence, cherry-picked samples, dose series (AID 651657); assay type: functional
T4 sequence (Q92698 whole entry): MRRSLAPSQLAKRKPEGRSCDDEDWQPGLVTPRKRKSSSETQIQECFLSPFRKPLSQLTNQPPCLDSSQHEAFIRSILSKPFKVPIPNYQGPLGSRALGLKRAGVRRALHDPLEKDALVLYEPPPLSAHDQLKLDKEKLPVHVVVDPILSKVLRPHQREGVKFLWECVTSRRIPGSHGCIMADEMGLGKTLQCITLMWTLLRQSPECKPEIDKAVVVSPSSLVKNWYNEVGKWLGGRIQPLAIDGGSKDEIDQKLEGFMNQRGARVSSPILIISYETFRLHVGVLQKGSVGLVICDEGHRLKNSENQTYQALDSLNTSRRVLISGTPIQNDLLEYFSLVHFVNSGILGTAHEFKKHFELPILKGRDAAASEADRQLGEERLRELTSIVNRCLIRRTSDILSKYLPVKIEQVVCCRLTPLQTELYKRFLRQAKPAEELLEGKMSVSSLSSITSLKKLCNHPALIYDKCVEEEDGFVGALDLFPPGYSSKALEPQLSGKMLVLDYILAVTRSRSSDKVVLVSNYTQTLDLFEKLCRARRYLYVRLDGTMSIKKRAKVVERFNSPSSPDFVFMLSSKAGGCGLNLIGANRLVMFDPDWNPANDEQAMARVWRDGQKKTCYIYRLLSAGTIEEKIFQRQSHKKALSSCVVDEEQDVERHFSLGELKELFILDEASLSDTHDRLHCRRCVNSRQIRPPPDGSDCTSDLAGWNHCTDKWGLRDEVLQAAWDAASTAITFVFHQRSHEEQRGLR

[24] = AlphaScreen signal interference compounds, dose response, artefact control for ARNT-TACC3 interaction inhibitor project, biochemical, luminescence, cherry-pick (AID 651705); assay type: functional;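 also: AlphaScreen bead proximity signal that flags compounds interfering with the detection technology; potency reflects signal decrease which marks the compound as an assay artifact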
[25] = Artemis endonuclease inhibitor potency, dose response, biochemical, fluorescence intensity (AID 720701); assay type: functional;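 also: Artemis endonuclease enzyme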
Melanocortin receptor 4 = Melanocortin receptor 4 (Homo sapiens, UniProt P32245); assay type: functional, cell-based;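 also: Cell-based assay with luminescence read-out, confirmatory dose-response testing for agonist activity of biased ligands at MC4R; human U2OS cells with tagged receptor and beta-arrestin; potency of agonists that increase receptor coupling to beta-arrestin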
Chain of Melanocortin receptor 4 (P32245 whole entry): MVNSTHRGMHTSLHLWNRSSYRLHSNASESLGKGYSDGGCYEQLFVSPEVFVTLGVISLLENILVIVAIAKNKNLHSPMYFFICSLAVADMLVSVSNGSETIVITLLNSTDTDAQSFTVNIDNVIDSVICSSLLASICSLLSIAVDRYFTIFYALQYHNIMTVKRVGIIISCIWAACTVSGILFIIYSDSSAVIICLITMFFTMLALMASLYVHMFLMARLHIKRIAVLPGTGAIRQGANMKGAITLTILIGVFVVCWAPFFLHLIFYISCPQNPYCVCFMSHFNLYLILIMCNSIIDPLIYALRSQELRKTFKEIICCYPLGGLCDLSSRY

[26] = target: T5, Apoptotic protease-activating factor 1 (Homo sapiens, UniProt O14727); test: SAR analysis of small molecule Activators of Apaf-1 in a Fluorescent assay.; assay type: functional; details: read-out: EC50_Mean;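 also: caspase-3 cleavage of fluorogenic Rh110 DEVD substrate downstream of apoptosome activation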
T5 sequence (O14727 whole entry): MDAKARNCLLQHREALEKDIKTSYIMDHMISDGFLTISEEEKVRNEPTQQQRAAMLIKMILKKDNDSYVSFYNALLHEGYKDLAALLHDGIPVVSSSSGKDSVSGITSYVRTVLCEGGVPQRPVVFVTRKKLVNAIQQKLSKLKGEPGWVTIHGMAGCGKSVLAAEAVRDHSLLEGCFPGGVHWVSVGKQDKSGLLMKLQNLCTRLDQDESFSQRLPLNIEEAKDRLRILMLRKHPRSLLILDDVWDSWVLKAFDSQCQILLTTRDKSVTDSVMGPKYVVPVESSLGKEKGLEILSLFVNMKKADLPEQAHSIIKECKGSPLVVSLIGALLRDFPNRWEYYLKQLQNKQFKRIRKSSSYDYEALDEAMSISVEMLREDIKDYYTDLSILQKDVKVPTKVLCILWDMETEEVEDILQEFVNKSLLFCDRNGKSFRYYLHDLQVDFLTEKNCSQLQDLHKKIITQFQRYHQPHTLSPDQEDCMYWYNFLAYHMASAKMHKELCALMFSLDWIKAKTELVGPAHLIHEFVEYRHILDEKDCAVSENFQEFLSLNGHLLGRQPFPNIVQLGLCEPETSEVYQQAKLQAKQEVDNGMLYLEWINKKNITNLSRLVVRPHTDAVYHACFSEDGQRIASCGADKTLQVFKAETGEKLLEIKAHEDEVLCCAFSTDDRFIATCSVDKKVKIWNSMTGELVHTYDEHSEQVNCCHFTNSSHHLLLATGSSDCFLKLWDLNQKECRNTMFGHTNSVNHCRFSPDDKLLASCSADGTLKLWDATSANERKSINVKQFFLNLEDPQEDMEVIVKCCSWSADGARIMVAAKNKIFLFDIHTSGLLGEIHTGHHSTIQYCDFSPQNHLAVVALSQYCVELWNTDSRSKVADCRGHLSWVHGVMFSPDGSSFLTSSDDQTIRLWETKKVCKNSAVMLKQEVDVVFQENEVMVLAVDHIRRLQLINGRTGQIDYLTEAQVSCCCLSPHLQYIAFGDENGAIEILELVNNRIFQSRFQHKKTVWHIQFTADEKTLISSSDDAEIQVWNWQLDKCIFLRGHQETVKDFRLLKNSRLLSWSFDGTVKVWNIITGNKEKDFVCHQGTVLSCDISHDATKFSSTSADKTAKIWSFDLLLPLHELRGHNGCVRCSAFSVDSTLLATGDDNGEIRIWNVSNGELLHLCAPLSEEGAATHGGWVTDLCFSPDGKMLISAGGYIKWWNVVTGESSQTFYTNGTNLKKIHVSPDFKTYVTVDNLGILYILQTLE

AC50 [1]: 7.94 µM (inconclusive)
Structure (SMILES): O=C(Oc1ccccc1)c1cccc(C(=O)Oc2ccccc2)c1

Structure (SMILES): O=C(Oc1c(Cl)cc(Cl)c2cccnc12)c1ccco1
EC50 [2]: 15.3 µM (active) | EC50 [3]: 2.12 µM (active) | AC50 [4]: 2.63 µM (active) | EC50 [5]: 0.098 µM (active) | EC50 [6]: 56.7 µM (inconclusive) | EC50 [7]: > 180 µM (inactive) | AC50 [8]: < 0.195 µM (active) | IC50 (Beta-galactosidase): > 66.6 µM (inactive) | EC50 [9]: 10.1 µM (active)

IC50 [10]: 22.5 µM (active) | IC50 (Prothrombin): 17.7 µM (active) | IC50 [11]: > 100 µM (inactive)
Structure (SMILES): COc1ccc(Cc2c(C(C)(C)C)nc3ccc(Cl)cn23)c(C)c1

IC50 [12]: 5.54 µM (active)
Structure (SMILES): COC(=O)Nc1csc2c1NC(=O)CCCC2

Ki [13]: 0.251 µM (active) | Ki [14]: 0.0631 µM (active) | Ki [15]: 0.01 µM (active) | Ki [16]: 0.251 µM (active) | Ki [17]: 0.794 µM (active) | Ki [18]: 0.00631 µM (active) | Ki [19]: 0.794 µM (active) | Ki [20]: 0.002 µM (active)
Structure (SMILES): COCC(C)Nc1cc(-c2c[nH]c3ncccc23)cc(Cl)n1 (stereo not given)

Structure (SMILES): COc1ccc2c(c1)[nH]c1c(C)nccc12 [HARMINE HYDROCHLORIDE]
IC50 (Interleukin-8 [21]): > 79 µM (inactive) | IC50 (Interleukin-8 [22]): 6.96 µM (active) | EC50 (Kallikrein-7): 24.8 µM (inactive) | AC50 [23]: 14.4 µM (active)

IC50 [25]: > 20 µM (inactive)
Structure (SMILES): Cc1ccc(Nc2nc(N)nc(CN3CCCCCC3)n2)cc1
AC50 [24]: 117 µM (active)

EC50 (Melanocortin receptor 4): > 89.2 µM (inactive)
Structure (SMILES): N#C/C(=C\c1cn(CCOc2ccccc2F)c2ccccc12)C(=O)NCc1cccs1

EC50 [26]: > 100 µM (inactive)
Structure (SMILES): CC(C)C(=O)Nc1ccc(N)cc1

From ChEMBL document CHEMBL1201862, “PubChem BioAssay data set” (2004)
